Reference: US8569336B2, “Compounds for the treatment of inflammatory disorders” (priority 2008, dated 2013)
pIC50, pKi: −log10 of the molar value. Like-named read-outs stand apart in the source and are kept apart here.

Columns and labels:
[1] = test system: TNF-α production from human whole blood; assay: Inhibition of TNF-α production from human whole blood (hWBA), LPS stimulated, ELISA; assay type: cell-based; settings: Homo sapiens, TNF-α by ELISA, read-out: hWBA (IC50)
[2] = molecular target: T1, purified catalytic domain of recombinant human TACE (rhTACEc) (Homo sapiens, UniProt P78536, N452Q/S266A); assay: TACE kinetic assay: cleavage of internally quenched peptide substrate TNF-FRET 2 (Ki); assay type: biochemical; settings: TNF-FRET 2 substrate
T1 construct: 6xHis (C); made in house; host or cells: baculovirus/Hi5 insect cells
T1 sequence (P78536 215-477 S266A/N452Q): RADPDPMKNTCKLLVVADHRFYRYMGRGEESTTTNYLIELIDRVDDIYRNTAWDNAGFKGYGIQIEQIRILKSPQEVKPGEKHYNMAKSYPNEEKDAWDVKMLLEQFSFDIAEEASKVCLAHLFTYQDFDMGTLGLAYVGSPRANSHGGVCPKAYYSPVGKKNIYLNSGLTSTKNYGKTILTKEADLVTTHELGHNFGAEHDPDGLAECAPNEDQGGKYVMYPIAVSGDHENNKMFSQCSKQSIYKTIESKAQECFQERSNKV

[3] = Area under the curve determinations of plasma levels in rats (rrAUC), oral 10 mg/kg; assay type: in vivo; settings: for AUC: rat, read-out: RR AUC (rapid rat AUC, rrAUC)
[4] = 3.5 h, human whole blood diluted 1:1, LPS stimulated, 3.5 h
[5] = human whole blood diluted 1:1, LPS stimulated
[6] = plasma, blood collected 0.5-6 h post-dosing
[7] = LPS-stimulated human whole blood
[8] = blood collected 0.5-6 h post-dosing

SMILES | pIC50 [1, 4] | pKi ([2]; read-out: Ki) | AUC ([3]; plasma 0.5-6 h post-dosing) | also measured
COc1ccc2c(c1)C(=O)N(C[C@@]1(c3cc4nc(N5C[C@H](O)CC5=O)ccc4o3)NC(=O)NC1=O)C2 [Compound 2158] | 6.75 | 9.26 | 1.19 µM·h | –
COc1ccc2c(c1)C(=O)N(C[C@@]1(c3cc4ccc(N)nc4o3)NC(=O)NC1=O)C2 [Compound 2250] | 6.66 | 9.36 | 0.391 µM·h | –
COc1ccc2c(c1)C(=O)N(C[C@@]1(c3cc4nc(Nc5ncccn5)ccc4o3)NC(=O)NC1=O)C2 [Compound 2169] | 6.04 | 9.24 | 4.83 µM·h | –
COC(=O)Nc1ccc2oc([C@]3(CN4Cc5ccc(OC)cc5C4=O)NC(=O)NC3=O)cc2n1 [Compound 2474] | – | 9.28 | – | pIC50 [1, 5]: 6.26; AUC [3, 6]: 15.5 µM·h
COc1ccc2c(c1)C(=O)N(C[C@@]1(c3cc4nc(-c5ccc(N)nc5)ccc4o3)NC(=O)NC1=O)C2 [Compound 2102] | 6.79 | – | 0.092 µM·h | pKi ([2]; Ki): 9.48
COc1ccc2c(c1F)C(=O)N(C[C@@]1(c3cc4cc(C)ncc4o3)NC(=O)NC1=O)C2 [Compound 305] | – | 9.19 | – | pIC50 [1, 7]: 6.62; AUC ([3]; plasma 0.5-6 h): 19.1 µM·h
COc1ccc2c(c1)C(=O)N(C[C@@]1(c3cc4cnc(-c5cncnc5)cc4o3)NC(=O)NC1=O)C2 [Compound 2233] | 6.11 | 9.12 | 3.81 µM·h | –
CCN1CCN(c2ccc3oc([C@]4(CN5Cc6ccc(OC)c(F)c6C5=O)NC(=O)NC4=O)cc3n2)CC1=O [Compound 1707] | – | 9.30 | – | pIC50 [1, 7]: 6.63; AUC ([3]; plasma 0.5-6 h): 0.65 µM·h
CNC(=O)Nc1ccc2oc([C@]3(CN4Cc5ccc(OC)cc5C4=O)NC(=O)NC3=O)cc2c1 [Compound 2227] | 6.27 | 9.32 | 0.057 µM·h | –
COc1ccc2c(c1)C(=O)N(C[C@@]1(c3cc4nc(N5CCN(C(C)=O)CC5)ccc4o3)NC(=O)NC1=O)C2 [Compound 2400] | – | 9.23 | – | pIC50 [1, 5]: 6.55; AUC [3, 6]: 0.439 µM·h
CCN1CCN(c2ccc3oc([C@]4(CN5Cc6ccc(OC)c(F)c6C5=O)NC(=O)NC4=O)cc3n2)CC1 [Compound 1705] | – | 9.09 | – | pIC50 [1, 7]: 6.86; AUC ([3]; plasma 0.5-6 h): 1.2 µM·h
CCCn1cc(-c2ccc3oc([C@]4(CN5Cc6ccc(OC)cc6C5=O)NC(=O)NC4=O)cc3n2)cn1 [Compound 2117] | 5.99 | 9.39 | 0.32 µM·h | –
COc1ccc2c(c1)C(=O)N(C[C@@]1(c3cc4cnc(-c5cn[nH]c5)cc4o3)NC(=O)NC1=O)C2 [Compound 2286] | – | 9.25 | – | pIC50 [1, 5]: 6.74; AUC [3, 6]: 0.046 µM·h
COc1ccc2c(c1)C(=O)N(C[C@@]1(c3cc4nc(C(N)=O)ccc4o3)NC(=O)NC1=O)C2 [Compound 1924] | – | 9.26 | – | pIC50 [1, 7]: 6.70; AUC ([3]; plasma 0.5-6 h): 0.113 µM·h
COc1ccc2c(c1)C(=O)N(C[C@@]1(c3cc4nc(N5C[C@@H](O)CC5=O)ccc4o3)NC(=O)NC1=O)C2 [Compound 2154] | 6.90 | 9.19 | 0.393 µM·h | –
COc1ccc2c(c1)C(=O)N(C[C@@]1(c3cc4cc(-c5cccnc5)cnc4o3)NC(=O)NC1=O)C2 [Compound 2254] | 5.78 | 9.22 | 1.77 µM·h | –
COc1ccc2c(c1)C(=O)N(C[C@@]1(c3cc4c5c(ccc4o3)CNC5=O)NC(=O)NC1=O)C2 [Compound 2503] | – | 9.44 | – | pIC50 [1, 5]: 6.77; AUC [3, 6]: 0.304 µM·h
CCC1(c2ccc3oc([C@]4(CN5Cc6ccc(OC)c(F)c6C5=O)NC(=O)NC4=O)cc3c2)NC(=O)NC1=O (stereo partly drawn) [Compound 1307] | – | 9.09 | – | pIC50 [1, 7]: 6.69; AUC ([3]; plasma 0.5-6 h): 2.01 µM·h
CCC1(c2cc(F)c3oc([C@]4(CN5Cc6ccc(OC)c(F)c6C5=O)NC(=O)NC4=O)cc3c2)NC(=O)NC1=O (stereo partly drawn) [Compound 1305] | – | 9.11 | – | pIC50 [1, 7]: 6.62; AUC ([3]; plasma 0.5-6 h): 1.87 µM·h
COc1ccc2c(c1)C(=O)N(C[C@@]1(c3cc4cc(-c5ccc(N)nc5)c(F)cc4o3)NC(=O)NC1=O)C2 [Compound 1188] | 6.14 | 9.29 | 0.355 µM·h | –
COc1ccc2c(c1)C(=O)N(C[C@@]1(c3cc4nc(Nc5ccnn5C)ccc4o3)NC(=O)NC1=O)C2 [Compound 2131] | 6.20 | 9.38 | 0.257 µM·h | –
COc1ccc2c(c1)C(=O)N(C[C@@]1(c3cc4cc(-c5ccc(O)cc5)ncc4o3)NC(=O)NC1=O)C2 [Compound 2243] | 6.12 | 9.37 | 0.027 µM·h | –
COc1ccc2c(c1F)C(=O)N(C[C@@]1(c3cc4c(C)nccc4o3)NC(=O)NC1=O)C2 [Compound 2204] | 6.94 | 9.47 | 0.983 µM·h | –
COc1ccc2c(c1)C(=O)N(C[C@@]1(c3cc4nc(Nc5cccnc5)ccc4o3)NC(=O)NC1=O)C2 [Compound 2130] | 6.79 | – | 0.072 µM·h | pKi ([2]; Ki): 9.20

SMILES | pIC50 [1, 4] | pKi ([2]; read-out: Ki) | AUC ([3]; plasma 0.5-6 h post-dosing) | also measured
COc1ccc2c(c1)C(=O)N(C[C@@]1(c3cc4nc(-n5nc(N)cc5C)ccc4o3)NC(=O)NC1=O)C2 [Compound 2118] | 5.42 | – | 0.527 µM·h | pKi ([2]; Ki): 9.22
COc1ccc2c(c1)C(=O)N(C[C@@]1(c3cc4ccccc4o3)NC(=O)NC1=O)C2 [Compound 2214] | 5.64 | 9.56 | 0.195 µM·h | –
COc1ccc2c(c1)C(=O)N(C[C@@]1(c3cc4cc(N)ccc4o3)NC(=O)NC1=O)C2 [Compound 2226] | 6.24 | 9.09 | 0.467 µM·h | –
COc1ccc2c(c1F)C(=O)N(C[C@@]1(c3cc4cc(C5(C)NC(=O)NC5=O)c(F)cc4o3)NC(=O)NC1=O)C2 (stereo partly drawn) [Compound 1316] | – | 8.99 | – | pIC50 [1, 7]: 6.98; AUC ([3]; plasma 0.5-6 h): 45.7 µM·h
COc1ccc2c(c1F)C(=O)N(C[C@@]1(c3cc4cc([C@]5(C)NC(=O)NC5=O)c(F)cc4o3)NC(=O)NC1=O)C2 (single isomer, unassigned) [Compound 1327] | – | 9.33 | – | pIC50 [1, 7]: 6.79; AUC ([3]; plasma 0.5-6 h): 2.97 µM·h
COc1ccc2c(c1)C(=O)N(C[C@@]1(c3cc4nc(N5CCCC5=O)ccc4o3)NC(=O)NC1=O)C2 [Compound 2171] | 6.31 | 9.17 | 9.1 µM·h | –
CNC(=O)c1ccc2oc([C@]3(CN4Cc5ccc(OC)cc5C4=O)NC(=O)NC3=O)cc2n1 [Compound 1925] | – | 9.07 | – | pIC50 [1, 7]: 6.55; RR AUC (rapid rat AUC, rrAUC) ([3]; plasma 0.5-6 h): 1.07 µM·h
COCCN1CCc2oc([C@]3(CN4Cc5ccc(OC)cc5C4=O)NC(=O)NC3=O)cc2C1 [Compound 2267] | 5.98 | 8.28 | 0.278 µM·h | –
COc1ccc2c(c1)C(=O)N(C[C@@]1(c3cc4cc(F)ncc4o3)NC(=O)NC1=O)C2 [Compound 2304] | – | 9.56 | – | pIC50 [1, 5]: 6.38; AUC [3, 6]: 9.31 µM·h
COc1ccc2c(c1)C(=O)N(C[C@@]1(c3cc4nc(NS(=O)(=O)C5CC5)ccc4o3)NC(=O)NC1=O)C2 [Compound 2318] | – | 9.24 | – | pIC50 [1, 5]: 6.29; RR AUC (rapid rat AUC, rrAUC) [3, 8]: 0.015 µM·h
CCNC(=O)N1CCc2oc([C@]3(CN4Cc5ccc(OC)cc5C4=O)NC(=O)NC3=O)cc2C1 [Compound 320] | – | 9.40 | – | pIC50 [1, 7]: 6.51; AUC ([3]; plasma 0.5-6 h): 0.011 µM·h
COc1ccc2c(c1)C(=O)N(C[C@@]1(c3cc4nc(Nc5cnccn5)ccc4o3)NC(=O)NC1=O)C2 [Compound 2129] | 6.12 | 9.40 | 1.33 µM·h | –
CCN1CCN(c2nc3cc([C@]4(CN5Cc6ccc(OC)c(F)c6C5=O)NC(=O)NC4=O)oc3cc2F)CC1 [Compound 1709] | – | 9.15 | – | pIC50 [1, 7]: 6.88; AUC ([3]; plasma 0.5-6 h): 0.623 µM·h
COc1ccc2c(c1)C(=O)N(C[C@@]1(c3cc4nc(N)ccc4o3)NC(=O)NC1=O)C2 [Compound 2314] | – | – | – | pIC50 [1, 5]: 6.73; pKi ([2]; Ki): 9.29; RR AUC (rapid rat AUC, rrAUC) [3, 8]: 0.424 µM·h
COc1ccc2c(c1F)C(=O)N(C[C@@]1(c3cc4cc(-c5cn[nH]c5)c(F)cc4o3)NC(=O)NC1=O)C2 [Compound 1187] | 6.54 | 9.64 | 1.07 µM·h | –
COc1ccc2c(c1F)C(=O)N(C[C@@]1(c3cc4nc(N5CCN(C(C)C)CC5)ccc4o3)NC(=O)NC1=O)C2 [Compound 1706] | – | 9.30 | – | pIC50 [1, 7]: 6.65; AUC ([3]; plasma 0.5-6 h): 0.273 µM·h
COc1ccc2c(c1F)C(=O)N(C[C@@]1(c3cc4nc(-c5ccncc5)ccc4o3)NC(=O)NC1=O)C2 [Compound 2122] | 6.37 | – | 8.18 µM·h | pKi ([2]; Ki): 9.24
COc1ccc2c(c1)C(=O)N(C[C@@]1(c3cc4nc(N5C(=O)CCC5C)ccc4o3)NC(=O)NC1=O)C2 (stereo partly drawn) [Compound 2161] | 6.73 | 9.27 | 4.79 µM·h | –
CNS(=O)(=O)c1ccc2oc([C@]3(CN4Cc5ccc(OC)cc5C4=O)NC(=O)NC3=O)cc2c1 [Compound 2481] | – | 9.80 | – | pIC50 [1, 5]: 6.51; AUC [3, 6]: 0.89 µM·h
COc1ccc2c(c1)C(=O)N(C[C@@]1(c3cc4cc(C(=NO)N5CCN(C6CC6)CC5)ccc4o3)NC(=O)NC1=O)C2 [Compound 2455] | – | 9.24 | – | pIC50 [1, 5]: 6.05; AUC [3, 6]: 0.013 µM·h
COc1ccc2c(c1)C(=O)N(C[C@@]1(c3cc4nc(NC5CC5)ccc4o3)NC(=O)NC1=O)C2 [Compound 2148] | 6.20 | 9.75 | 9.34 µM·h | –
COc1ccc2c(c1)C(=O)N(C[C@@]1(c3cn4ccsc4n3)NC(=O)NC1=O)C2 [Compound 502C] | – | – | – | pIC50 [1, 7]: 6.27; pKi ([2]; Ki): 8.90; AUC ([3]; plasma 0.5-6 h): 2.22 µM·h
COc1ccc2c(c1)C(=O)N(C[C@@]1(c3cc4c(-c5cccnc5)nccc4o3)NC(=O)NC1=O)C2 [Compound 2235] | 6.26 | 9.42 | 0.018 µM·h | –
